Experimental findings from publication PMC7532004, “Site-specific effects of neurosteroids on GABAA receptor activation and desensitization” (eLife, 2020) are described below.

The target of test [1] is T1, α1(N408A/Y411F)β3(Y284F) GABAAR (UniProt P28472+P62813, N434A/Y309F/Y437F).
T1 construct: expressed in transfected cells; host or cells: Xenopus laevis oocytes injected with cRNA
The test is described as follows: Two-electrode voltage clamp in Xenopus laevis oocytes, both intrasubunit sites mutated. To be noted: 3 μM 3β5αP, 1 mM GABA + 25 μM pentobarbital. Type of test: cell-based. As for the experimental part: (§1) The wild-type and mutant α1β3 GABAAR were expressed in oocytes from the African clawed frog (Xenopus laevis). Frogs were purchased from Xenopus 1 (Dexter, MI), and housed and cared for in a Washington University Animal Care Facility under the supervision of the Washington University Division of Comparative Medicine. Harvesting of oocytes was conducted under the Guide for the Care and Use of Laboratory Animals as adopted and promulgated by the National Institutes of Health. The animal protocol (No. 20180191) was approved by the Animal Studies Committee of Washington University in St. Louis. The oocytes were injected with a total of 12 ng cRNA. The ratio of cRNAs was 5:1 ratio (α1:β3) to minimize the expression of β3 homomeric receptors. Following injection, the oocytes were incubated in ND96 (96 mM NaCl, 2 mM KCl, 1.8 mM CaCl2, 1 mM MgCl2, 5 mM HEPES; pH 7.4) with supplements (2.5 mM Na pyruvate, 100 U/ml penicillin, 100 μg/ml streptomycin and 50 μg/ml gentamycin) at 16°C for 2 days prior to conducting electrophysiological recordings. The electrophysiological recordings were conducted at room temperature using standard two-electrode voltage clamp. The oocytes were clamped at −60 mV. The chamber (RC-1Z, Warner Instruments, Hamden, CT) was perfused with ND96 at 5–8 ml/min. […] Current traces were analyzed with Clampfit (Molecular Devices). […]
(In two-electrode clamp one electrode senses voltage and the other passes current.)

The subject of the next test is α1β3(Y284F) GABAAR. Nature of the test: Two-electrode voltage clamp in Xenopus laevis oocytes, Y284F mutant. Type of test: cell-based. Particulars: 3 μM 3β5αP, 1 mM GABA; α1β3(Y284F) vs WT. As for the experimental part:
as §1

The next test concerns α1(N408A/Y411F)β3 GABAAR. The test is described as follows: Two-electrode voltage clamp in Xenopus laevis oocytes, N408A/Y411F mutant. Type of test: cell-based. To be noted: 3 μM 3β5αP, 1 mM GABA; α1(N408A/Y411F)β3 vs WT. Here is the method: as §1
Test [2] has as its target T2, α1(Q242L/N408A/Y411F)β3(Y284F) GABAAR (UniProt P28472+P62813, N434A/Q268L/Y309F/Y437F).
T2 construct: expressed in transfected cells; host or cells: Xenopus laevis oocytes injected with cRNA
The test is described as follows: Two-electrode voltage clamp in Xenopus laevis oocytes, all three sites mutated. It counts as cell-based. Particulars: 3 μM 3β5αP, 1 mM GABA + 25 μM pentobarbital. As for the experimental part: as §1

Test [3] addresses T3, α1β3 GABAARs on intact HEK cell surfaces (Homo sapiens, UniProt P14867+P28472).
T3 construct: inserted between the fourth and fifth residues of the mature peptide; photolabeling full-length heteropentameric GABAARs in native membranes; expressed in transfected cells
T3 sequence (P14867 28-456): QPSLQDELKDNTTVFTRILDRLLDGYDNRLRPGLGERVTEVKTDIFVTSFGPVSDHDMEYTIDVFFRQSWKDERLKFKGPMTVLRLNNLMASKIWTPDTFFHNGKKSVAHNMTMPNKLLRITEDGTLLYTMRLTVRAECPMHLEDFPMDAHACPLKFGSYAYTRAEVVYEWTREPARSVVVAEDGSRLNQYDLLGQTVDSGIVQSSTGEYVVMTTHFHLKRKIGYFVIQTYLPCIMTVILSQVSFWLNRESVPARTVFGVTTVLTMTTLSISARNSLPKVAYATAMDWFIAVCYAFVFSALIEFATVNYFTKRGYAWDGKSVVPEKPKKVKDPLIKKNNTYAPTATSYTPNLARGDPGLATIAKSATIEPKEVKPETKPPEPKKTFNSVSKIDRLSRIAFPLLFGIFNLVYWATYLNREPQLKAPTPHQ
T3 sequence (P28472 26-473): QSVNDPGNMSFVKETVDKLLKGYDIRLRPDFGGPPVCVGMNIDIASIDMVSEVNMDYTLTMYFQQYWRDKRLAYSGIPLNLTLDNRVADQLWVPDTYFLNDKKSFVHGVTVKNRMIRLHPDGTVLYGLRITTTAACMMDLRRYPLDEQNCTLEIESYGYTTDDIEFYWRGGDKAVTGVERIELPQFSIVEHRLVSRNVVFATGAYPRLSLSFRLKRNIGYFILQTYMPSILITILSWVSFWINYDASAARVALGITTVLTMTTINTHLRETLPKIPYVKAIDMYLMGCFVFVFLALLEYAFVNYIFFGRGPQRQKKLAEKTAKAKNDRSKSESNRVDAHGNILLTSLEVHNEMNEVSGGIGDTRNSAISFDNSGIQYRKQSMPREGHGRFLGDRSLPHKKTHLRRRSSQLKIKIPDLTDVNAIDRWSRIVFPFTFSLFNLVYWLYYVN
The test is described as follows: [3H]muscimol binding to intact HEK cells (cell surface vs total receptors). Particulars: 10 μM KK148; 3 nM [3H]muscimol; intact vs permeabilized HEK cells. As for the experimental part:
HEK cells were harvested by gently washing dishes with buffer containing 10 mM sodium phosphate (pH 7.5), 150 mM sodium chloride twice. The cells were collected by centrifugation at 500 g at 4°C for 5 min, and resuspended in isotonic (10 mM sodium phosphate, 150 mM sodium chloride, pH 7.5) or hypotonic (10 mM sodium phosphate, pH 7.5) buffer to prepare two different conditions for radioligand binding to intact cells [isotonic buffer for cell surface receptors; hypotonic buffer for total receptors (cell surface receptors + intracellular receptors)]. The cells were incubated on ice for 2 hr, after which the sodium chloride concentration was adjusted to be isotonic before the radioligand binding procedure. HEK cells were aliquoted to assay tubes (20 samples/150 mm dish) in a total volume of 1 ml, and incubated with 3 nM [^3H]muscimol ±10 μM KK148 for 1 hr on ice in the dark.

Take `CC(=O)[C@H]1CC[C@H]2[C@@H]3CC[C@H]4C[C@@H](O)CC[C@]4(C)[C@H]3CC[C@]12C` [3β5αP, epi-allopregnanolone]: the “Enhancement of desensitization compared with single intrasubunit site mutants” value in test [1] was “less NS-enhancement of desensitization”. Further, the “Prevention of 3β5αP-enhanced desensitization by mutation” value in the test on α1β3(Y284F) GABAAR and with α1(N408A/Y411F)β3 GABAAR was ~ 67% each time. The “Desensitizing effect with combined mutations of all three binding sites” value in test [2] was “not completely eliminated”.
As for `C#CCCO[C@H]1CC[C@H]2[C@@H]3CC[C@H]4CC5(CC[C@]4(C)[C@H]3CC[C@]12C)N=N5` [KK148], in test [3], the “Enhancement of specific [3H]muscimol binding in intact cells” value is “enhanced”.
